Results: US12421227B2, “Ribociclib salts and solid state forms thereof” (ASSIA CHEMICAL INDUSTRIES LTD., priority 2017, dated 2025)

Columns and labels:
[1] = cited from earlier work
[2] = exposure to 90% RH; cited from earlier work

| Substance | sorption/desorption behavior, hydrate formation ([1]; 90% RH condition in each cycle) | moisture absorbed ([1]; at 90% RH in each cycle) | hygroscopic behavior ([1]; at high humidity conditions) | physical form on exposure to humidity [2] | hygroscopicity |
| --- | --- | --- | --- | --- | --- |
| Ribociclib succinate | formation of hydrate form is taking place | up to 2% | slight hygroscopic behavior | change in physical form | – |
| Ribociclib succinate [Form B] | – | – | – | – | negligible hygroscopicity |
